From ChEMBL document CHEMBL1123003, “Synthesis and interaction of 5-(substituted-phenyl)-3-methyl-6,7-dihydropyrazolo[4,3-e] [1,4]diazepin-8(7H)-ones with benzodiazepine receptors in rat cerebral cortex” (J Med Chem, 1985)

Target: GABA-A receptor; anion channel
Test: Displacement of [3H]flunitrazepam from GABA-A benzodiazepine receptor in synaptic membranes of rat cerebral cortex
Format: cell membranes

Structure (SMILES) | IC50 [µM]
Cc1n[nH]c2c1N=C(c1ccc(Br)cc1)CNC2=O | 22.3
Cc1n[nH]c2c1N=C(c1ccccc1)CNC2=O | 4.4
CNC1=Nc2ccc(Cl)cc2C(c2ccccc2)=[N+]([O-])C1 [CHLORDIAZEPOXIDE] | 0.91
Cc1n[nH]c2c1N=C(c1ccc(-c3ccccc3)cc1)CNC2=O | > 100
CCn1nc(C)c2c1C(c1ccccc1)=NCC(=O)N2 [RIPAZEPAM] | 0.67
Cc1n[nH]c2c1N=C(c1ccc([N+](=O)[O-])cc1)CNC2=O | 30.5
Cc1n[nH]c2c1N=C(c1ccc(Cl)cc1)CNC2=O | 10
COc1ccc(C2=Nc3c(C)n[nH]c3C(=O)NC2)cc1 | 46.5
